These results are taken from patent publication US20140017701A1, “CHIMERIC PDK1 KINASES” (priority 2011, published 2014).

Experiment [1] deals with T1, PKCα (Homo sapiens, UniProt P17252).
T1 construct: purchased Millipore
As to the kind of experiment: Protein kinase activity assay, PKCα. It is filed as biochemical. Particulars: Table I b; percentage of catalytic activity compared to DMSO; lipid activator mix, histone H1. On the procedure:
(§1) The protein kinase activity assays were performed essentially as previously described (Engel, M. et al. Embo J 25, 5469-80 (2006)). The assays were done in a 96-well format and 4 μl aliquots spotted on P81 phospho-cellulose papers (Whatman) using epMotion 5070 (Eppendorf), washed in 0.01% phosphoric acid, dried, and then exposed and analyzed using PhosphoImager technology (FLA-9000 Starion, Fujifilm). Atypical PKC (aPKC) activity assays were performed in a total volume of 20 μl containing 50 mM Tris-HCl pH 7.5, 0.05 mg/ml BSA, 0.1% (v/v) 2-mercaptoethanol, 10 mM MgCl2, 100 μM [γ^32P]ATP (5-50 cpm/pmol), 0.003% Brij, 30-50 ng of aPKC, and MBP (10 μM) or PSRtide (100 μM) as the substrate. After 15 min pre-incubation, the kinase reaction was started by addition of 6 μl of an ATP-Mg mix. When required, lipid activator (LA) phosphatidylserine (100 ng) or PKC lipid activator mix (1×) was included in the pre-incubation. Low basal activity and consistent activation of 1-592 PKCζ and 498 PKCζ by LA was obtained when the pre-incubation time was started by addition of the whole mix on the enzyme.
(§2) The substrates were T308tide (200 μM) for PDK1, Kemptide (100 μM) for PKA, and Crosstide (100 μM) for SGK, PKB, S6K, and PRK2. The activity assays for PKCα, β, θ, and δ were performed in the presence of PKC lipid activator mix (1×) using 3 μM of histone H1 as substrate. […]

In experiment [2] the test system is PKCζ-dependent NFκB activation in U937 cells. As to the kind of experiment: PKCζ-dependent NFκB signaling in U937 cells (luciferase reporter, TNFα stimulation). It is filed as cell-based. The note with it: 3 h pre-incubation, TNFα 50 ng/ml 90 min, read-out: IC50, inhibition of PKCζ-dependent NFκB activation. Here is the method: In U937 lymphoma cells, tumor necrosis factor alpha (TNFα) dependent activation of NFκB is dependent on PKCζ activity (Folgueira, L. et al. J Virol 70, 223-31 (1996); Muller, G. et al. Embo J 14, 1961-9 (1995)). U937cells were transiently transfected with a plasmid encoding for luciferase under the control of NFκB response elements (pGL4.32 [luc2P/NF-κB-RE/Hygro], Promega). After serum starvation overnight, the cells were incubated in 96-well plates with the compounds or DMSO (0.25%) for 3 h and stimulated with TNFα (50 ng/ml, PeproTech) for 90 min. Bright-Glo Luciferase Assay reagent (Promega) was added and the luciferase activity measured using the multilabel reader station EnVision (Perkin Elmer).
U937 lymphoma cells were transiently transfected with a plasmid coding for luciferase under the control of the NFκB promoter. Upon stimulation of the cells with TNFα, an increase in luciferase activity is detected. In U937 cells, the NFκB signaling pathway is dependent on PKCζ activity (Muller, G. et al. Embo J 14, 1961-9 (1995)).
A general note: Reporter assays use an easily measured gene product as a stand-in for the process of interest.

The target in experiment [3] is T2, PKCθ (Homo sapiens, UniProt Q04759).
T2 construct: purchased ProQinase
As to the kind of experiment: Protein kinase activity assay, PKCθ. In kind it is biochemical. The note with it: Table I b; percentage of catalytic activity compared to DMSO; lipid activator mix, histone H1. On the procedure: as §1, §2

Experiment [4] deals with PKA. As to the kind of experiment: Protein kinase activity assay, PKA. In kind it is biochemical. Particulars: Table I a; percentage of catalytic activity compared to DMSO; Kemptide substrate. On the procedure: as §1, §2
The target of experiment [5] is T3, PKBα [Ser473Asp] (Homo sapiens, UniProt P31749, S473D).
T3 construct: made in house; host or cells: HEK293
As to the kind of experiment: Protein kinase activity assay, PKBα. In kind it is biochemical. The note with it: Table I a; percentage of catalytic activity compared to DMSO; Crosstide substrate. On the procedure:
For the expression and purification of protein kinases fused to GST, pEBG-2T derived plasmids were transfected into 8×14.5 cm dishes containing HEK293 cells using the PEI method ([…] and […]/14.5 cm dish). The cells were lysed after 48 h in a buffer containing 50 mM Tris-HCl pH 7.5, 1 mM EGTA, 1 mM EDTA, 1% (w/v) Triton X-100, 1 mM sodium orthovanadate, […], 5 mM sodium pyrophosphate, 0.27 M sucrose, 0.1% β-mercaptoethanol, and 1 tablet of protease inhibitor cocktail per 50 ml of buffer. Lysates were frozen in liquid nitrogen and kept at −80° C. until required. Purification involved incubation of the cleared lysate with glutathione sepharose, followed by 2 washes with 0.5 M NaCl in lysis buffer, 8 washes with a buffer containing 50 mM Tris-HCl, 0.1 mM EGTA and 0.1% β-mercaptoethanol (buffer A), and a last wash with buffer A supplemented with 0.26 M sucrose. […]
The protein kinase activity assays were performed essentially as previously described (Engel, M. et al. Embo J 25, 5469-80 (2006)). The assays were done in a 96-well format and 4 μl aliquots spotted on P81 phospho-cellulose papers (Whatman) using epMotion 5070 (Eppendorf), washed in 0.01% phosphoric acid, dried, and then exposed and analyzed using PhosphoImager technology (FLA-9000 Starion, Fujifilm). […]

Structures are written as SMILES.

T3 sequence (P31749 whole entry S473D): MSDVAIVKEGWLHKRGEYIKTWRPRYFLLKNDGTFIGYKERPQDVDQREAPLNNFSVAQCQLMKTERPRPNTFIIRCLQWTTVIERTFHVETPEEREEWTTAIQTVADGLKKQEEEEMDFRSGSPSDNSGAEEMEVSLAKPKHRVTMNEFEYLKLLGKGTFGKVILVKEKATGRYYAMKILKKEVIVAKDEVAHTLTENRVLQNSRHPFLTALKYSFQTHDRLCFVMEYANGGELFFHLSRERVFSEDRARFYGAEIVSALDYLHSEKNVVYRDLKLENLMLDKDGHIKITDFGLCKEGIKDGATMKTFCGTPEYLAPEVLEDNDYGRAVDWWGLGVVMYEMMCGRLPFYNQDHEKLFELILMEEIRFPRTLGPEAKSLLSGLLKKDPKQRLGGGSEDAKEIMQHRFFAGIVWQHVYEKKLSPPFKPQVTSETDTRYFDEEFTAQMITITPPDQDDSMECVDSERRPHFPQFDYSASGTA
T2 sequence (Q04759 whole entry): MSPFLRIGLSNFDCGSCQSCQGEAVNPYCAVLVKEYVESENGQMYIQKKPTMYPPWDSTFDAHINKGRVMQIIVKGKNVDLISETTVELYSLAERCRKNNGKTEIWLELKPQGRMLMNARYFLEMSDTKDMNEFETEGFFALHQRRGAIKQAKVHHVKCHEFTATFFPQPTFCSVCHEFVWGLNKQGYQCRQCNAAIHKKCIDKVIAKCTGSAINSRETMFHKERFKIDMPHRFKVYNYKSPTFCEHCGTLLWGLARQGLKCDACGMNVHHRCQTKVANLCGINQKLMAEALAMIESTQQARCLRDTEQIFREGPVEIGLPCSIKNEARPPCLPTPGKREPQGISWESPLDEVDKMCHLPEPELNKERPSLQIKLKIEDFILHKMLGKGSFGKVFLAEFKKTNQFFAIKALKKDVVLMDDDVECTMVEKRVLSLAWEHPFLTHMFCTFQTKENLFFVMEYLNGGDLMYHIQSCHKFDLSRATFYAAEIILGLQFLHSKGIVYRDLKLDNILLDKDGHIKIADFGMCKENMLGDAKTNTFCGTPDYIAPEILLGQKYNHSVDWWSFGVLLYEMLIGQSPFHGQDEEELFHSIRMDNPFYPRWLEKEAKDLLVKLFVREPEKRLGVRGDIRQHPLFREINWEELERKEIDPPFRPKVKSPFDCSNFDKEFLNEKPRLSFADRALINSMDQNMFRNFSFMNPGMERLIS

Broadly, the IC50 is the concentration that inhibits the measured activity by half. Take `Cl.O=C(O)CC(Cc1nc2cc(-c3ccccc3)ccc2[nH]1)c1ccc(Cl)cc1` (stereo not shown) [PS168]: in experiment [1], the “Activity (%) Classical PKCs PKCα” value came to 154%. For the same compound, the IC50 in experiment [2] was 50 µM. Further, the “Activity (%) Novel PKCs PKCθ” value in experiment [3] stood at 130%. The “Activity (%) PKA” value in experiment [4] came to 70%. The “Activity (%) PKBα” value in experiment [5] was found to be 87%.
For `Cl.O=C(O)CC(Cc1nc2c(Cl)cc(Cl)cc2[nH]1)c1ccc(Cl)cc1` (stereo not shown) [PS171], in experiment [1], the “Activity (%) Classical PKCs PKCα” value is 145%. Further, the IC50 in experiment [2] came out at 50 µM. Moreover, the “Activity (%) Novel PKCs PKCθ” value in experiment [3] was 118%. Further, the “Activity (%) PKA” value in experiment [4] is listed as 91%. Besides, the “Activity (%) PKBα” value in experiment [5] turned out to be 94%.
